The results in this text go back to US20250283050A1, “METHOD OF CANCER TREATMENT” (priority 2021, published 2025).

In one data set the test system is Hom-1 expression in TAMs. The data set can be described thus: DOX induction of Hom-1 expression. The class given is cell-based, human. The procedure: Total RNA was isolated by the TRIzol reagent (Life Technologies) and RNA amounts were measured by NanoDrop 2000 (Thermo Scientific). Equal amount of RNA was used for first-strand cDNA synthesis with SuperScript III First-Strand Synthesis System (Life Technologies) according to the manufacturer's protocol. The AccuPrime Taq DNA polymerase system (Life Technologies) was used to amplify Hom-1 cDNA with conventional PCR. Quantitative measurements of Hom-1 and other cDNA were carried out with SYBR Green, using a Mastercycler ep Gradient S (Eppendorf). GAPDH was used as a house keeping gene to normalize mRNA expression. Relative expression profiles of mRNAs were calculated using the comparative Ct method (DDCT method).
Tumor tissue were washed with 1×PBS buffer plus antibiotics and then cut into 0.5 cm pieces. Tissues were cultured in 2 mL of RPMI 1640 medium, supplemented with 2-10% FBS (Sigma) and 1% antibiotic-antimycotic solution (Gibco) in 24-well plate (Corning). The cultures were incubated at a 37° C., 5% CO2 incubator. […] To evaluate the effect of chemotherapeutic agents, chemo-reagents at indicated concentration or PBS was used instead of the anti-PD-1 antibody. For en bloc tissue and macrophage co-culture assay, 0.25×10^6 GFP-Hom-1 or control GFP transfected autologous macrophages of the same patient were added to the en bloc tissue culture wells. […]

The test system of data set [1] is NFκB binding to Hom-1 promoter. In words: ChIP assay of NFκB at Hom-1 promoter. The class given is cell-based. Conditions: human monocytes, 1 μM DOX, 24 hours. The procedure:
Human monocytes were treated with 1 μM DOX or PBS control for 24 hours and harvested for ChIP assay. The ChIP procedure was performed with a kit from Upstate biotechnology following the manufacturer's instructions. The NFκB p65 antibody (Cell Signaling Technology, Cat# 8242) was used for the immunoprecipitation. The Rabbit IgG antibody was served as a negative control. The Hom-1 promotor region containing a putative NFκB binding site was amplified with specific primers 5′-[…]-3′ and 5′-[…]-3′. All PCR products were separated on 1% agarose gel and visualized by ethidium bromide staining.

In a further data set the test system is NFκB. In words: NF-κB activation assay in monocytes. The data set is classed as cell-based. Conditions: primary human monocytes; 24 hour. As for the experimental part: To determine whether NFκB plays a role in DOX activation of Hom-1 expression in monocytes, the effects of DOX on NFκB expression in primary monocytes were determined.
Human monocytes were treated with DOX at indicated concentration or PBS control. After 24 hour of treatment, the nuclear extracts were prepared using a nuclear extract kit (Active Motif, Cat. 40010). The DNA-binding activity of NF-κB p65 was determined using the TransAm assays (Active Motif, Cat. 40097) according to the manufacturer's instructions. Briefly, 2.5 μg nuclear extracts of each sample were incubated with immobilized NF-κB-specific oligonucleotides for 1 hr. The p65 protein bound to DNA was then visualized by incubation with p65-specific antibody, HRP-conjugated secondary antibody and developing solution and measured with a microplate reader with the absorbance at 450 nm.

The next data set concerns esophageal cancer. In words: en bloc tumor culture with chemotherapeutic agent and Hom-1-TAMs: esophageal cancer. The data set is classed as cell-based. Conditions: agent plus Hom-1-TAMs. As for the experimental part: (§1) Besides CRC, Hom-1-TAMs reverse immune polarity of PDAC and NSCLC TME (data not shown). The effects of Hom-1-TAM on tumoricidal effects of DOX were further explored on other tumor types, such as PDAC, NSLC, esophageal cancer and stomach cancers.
(§2) Additional chemo-reagents used in this study are listed below.
(§3) Tumor tissue were washed with 1×PBS buffer plus antibiotics and then cut into 0.5 cm pieces. Tissues were cultured in 2 mL of RPMI 1640 medium, supplemented with 2-10% FBS (Sigma) and 1% antibiotic-antimycotic solution (Gibco) in 24-well plate (Corning). The cultures were incubated at a 37° C., 5% CO2 incubator. […] To evaluate the effect of chemotherapeutic agents, chemo-reagents at indicated concentration or PBS was used instead of the anti-PD-1 antibody. For en bloc tissue and macrophage co-culture assay, 0.25×10^6 GFP-Hom-1 or control GFP transfected autologous macrophages of the same patient were added to the en bloc tissue culture wells. After gently shaking, the plate was incubated at 37° C., 5% CO2 for 3-5 days. The en bloc tissues were then subjected to single 1 cell isolation and analysis as described.

The next data set concerns stomach cancer. In words: en bloc tumor culture with chemotherapeutic agent and Hom-1-TAMs: stomach cancer. The data set is classed as cell-based. Conditions: agent plus Hom-1-TAMs. The procedure: as §1, §2, §3
Data set [2] deals with non-small cell lung cancer (NSCLC). The data set can be described thus: en bloc tumor culture with chemotherapeutic agent and Hom-1-TAMs: NSCLC. The class given is cell-based. Conditions: agent plus Hom-1-TAMs. The procedure:
as §1, §2, §3

For data set [3], the system named is TAMs and TIL in en bloc CRC. In words: en bloc CRC culture: DOX effects on TAM plasticity and TIL differentiation. The class given is cell-based, human.
From the text: As DOX induces Hom-1 expression in TAMs in en bloc CRC culture (data not shown), this example illustrates the involvement of Hom-1 in mediating therapeutic effects of DOX.
Consistent with a key regulatory role of Hom-1 in mediating DOX effects on TAM plasticity and the immune landscape of TME, it was shown that knockdown of Hom-1 expression in TAMs attenuated DOX effects on the expression of M1 and M2 markers and inhibited DOX-induced secretion of pro-inflammatory cytokines (data not shown).
as §3

The subject of data set [4] is normal epithelial cells of colon mucosal tissues. In words: en bloc control colon mucosal tissue culture: normal epithelial cell death by PI-staining and FACS. The class given is cell-based, human. Conditions: DOX 3 days. As for the experimental part: (§4) To this end, en bloc colorectal cancers (CRC) or control non-tumor colon mucosal tissues from the same patients were incubated in RPMI based media and treated with DOX for 3 days. The effects of the treatment on tumor or normal cells were then determined by PI-staining and FACS analysis.
(§5) To this end, en bloc CRC tumor or control colon mucosal tissues were treated with DOX at low non-cytotoxic dosage and then co-cultured with TAMs transfected with Hom-1 or control GFP. After 5 days of co-culturing, the effects of the treatment on the survival of tumor or control normal epithelial cells were determined by PI staining and FACS analysis.
Tumor tissue were washed with 1×PBS buffer plus antibiotics and then cut into 0.5 cm pieces. Tissues were cultured in 2 mL of RPMI 1640 medium, supplemented with 2-10% FBS (Sigma) and 1% antibiotic-antimycotic solution (Gibco) in 24-well plate (Corning). The cultures were incubated at a 37° C., 5% CO2 incubator. […]
Single cell suspensions generated from en bloc tissue culture were washed with FACS staining solution (PBS plus 2% FBS), fixed and permeabilized (Invitrogen) and then stained with Ber-EP4 antibodies for normal epithelial cells and CK7, CK19 and CK20 for cancer cells for 30 minutes on ice. […] Cell viability were then analyzed with a flow cytometry.

Another data set concerns primary human CRC. The data set can be described thus: NSG-PDX model of primary human CRC. The data set is classed as in vivo. Conditions: low dosage DOX 1.5 mg/kg tail-vein, alone. The procedure: To this end, NSG-PDX models of primary human CRC were established according to established methods. One week post-implantation of primary CRC tumors, the mice were tail-vein injected with a low dosage of Hom-1-TAMs. Three days later, low dosage DOX at 1.5 mg/kg were given through tail-vein injection and the DOX injection were repeated after two weeks.
Animal models of primary human colon cancers were developed previously. Briefly, 8-week-old NOD. Cg-Prkdc^scid Il2rg^tm1Wjl/SzJ mice (commonly known as NOD scid gamma, or NSG mice) were purchased from the Jackson Laboratory and maintained under specific pathogen-free conditions. Tumors were cut into around 0.5 cm pieces and then surgically implanted into subcutaneous space in flank of NSG mice. After one week of implantation, 0.25×10^6 TAMs transfected with GFP-Hom-1 or control GFP were injected into the mice through tail vain. After three days, 1.5 mg/Kg of DOX or PBS control were tail-vain injected and then repeated after two weeks. The tumor growth was monitored twice weekly and measured by a caliper for 6 weeks. Tumor volumes were calculated according to the formula ½ (length×width^2).

Data set [5] relates to colorectal cancers (CRC) tumor cells. In words: en bloc CRC culture: tumor cell death by PI-staining and FACS. The class given is cell-based, human. The procedure: as §4, §5, §3
Single cell suspensions generated from en bloc tissue culture were washed with FACS staining solution (PBS plus 2% FBS), fixed and permeabilized (Invitrogen) and then stained with Ber-EP4 antibodies for normal epithelial cells and CK7, CK19 and CK20 for cancer cells for 30 minutes on ice. After washes with FACS staining solution, cells were stained with FITC-conjugated secondary antibodies for 30 minutes on ice. The cells were then washed with FACS staining solution and fixed in 2% paraformaldehyde in PBS for 30 min or overnight. The cells were washed and resuspended in 200 μL of FACS staining solution and 5 μL of PI staining solution (eBioscience/Fisher Scientific) were added in the solution for 15 minutes. Cell viability were then analyzed with a flow cytometry.

A further data set has as its system PDAC. In words: en bloc tumor culture with chemotherapeutic agent and Hom-1-TAMs: PDAC. The data set is classed as cell-based. Conditions: agent plus Hom-1-TAMs. As for the experimental part:
as §1, §2, §3

As to `COc1cccc2c1C(=O)c1c(O)c3c(c(O)c1C2=O)C[C@@](O)(C(=O)CO)C[C@@H]3O[C@H]1C[C@H](N)[C@H](O)[C@H](C)O1` [DOX, Doxorubicin], in the data set on Hom-1 expression in TAMs (cancer cells and macrophages), the Hom-1 expression entry is “potent inducer of Hom-1 expression both in cancer cells and in macrophages”. In the data set with Hom-1 expression in TAMs (en bloc CRC culture), the “TAM Hom-1 expression” value is recorded as “induced TAM Hom-1 expression in the en bloc CRC culture in a dosage dependent manner”. The “interaction of NFκB with Hom-1 promoter” value in data set [1] is given as “promoted the interaction of NFκB with Hom-1 promoter”. Besides, the NFκB expression entry in the data set with NFκB was “induces NFκB expression in primary human monocytes in a dosage dependent manner”. The “tumoricidal effects promoted by Hom-1-TAMs” value (with esophageal cancer; with stomach cancer; in [2]; in the data set with PDAC) was “promotes tumoricidal function” throughout. For the same compound, in data set [3], the “CD4 T cell differentiation into Treg cells” value was “reduced CD4 T cell differentiation into Treg cells”. For the same compound, the “CD8 T cell activation” value in data set [3] is listed as “increased CD8 T cell activation”. For the same compound, the “TAM phenotype (M1/M2 markers and cytokines)” value in data set [3] is on record as “shifted the population of TAMs from M2-like phenotype to M1-like phenotype”. Also, in data set [4], the “cytotoxic effects on normal epithelial cells” value is recorded as “less cytotoxic effects on normal epithelial cells”. Also, in the data set with primary human CRC, the “inhibition of CRC tumorigenesis” value was “small discernable inhibition on CRC tumorigenesis”. The “cytocidal effects on tumor cells” value is reported as “dosage-dependent cytocidal effects on tumor cells” in data set [5] (en bloc CRC culture, agent alone, dose range) and “little cytocidal effects on tumor cells” in [5] (en bloc CRC, DOX alone at non-cytotoxic concentration, 5 days).

Turning to `Nc1ccn([C@@H]2O[C@H](CO)[C@@H](O)C2(F)F)c(=O)n1` [Gemcitabine], the “tumoricidal effects promoted by Hom-1-TAMs” value in the data set with PDAC is recorded as “promoted”.
